Columns and labels:
[1] = tested on: MV-4-11 (Human blood cancer cell line); experiment: Effect of combination of sulfonamide compound and other antitumor agent (CellTiter-Glo, combination index): MV-4-11
Description: (§1) Each cell line was seeded at 90 L/well to a 96-well culture plate (Thermo Fisher Scientific, Inc.) according to the above tables. The cell-seeded plate was cultured in an incubator set to 37° C. and 500 CO2. On the day following seeding, varying concentrations of the sulfonamide compound and the other antitumor agent were added in combination to the cells. […] The serial dilutions of each compound, or DW was added at 5μL/well to the plate such that each compound and DW, or the sulfonamide compound and the other antitumor agent were combined. […] The plate after the addition was cultured at 37° C. for 3 days under 5% CO2 conditions.
(§2) Three days later, CellTiter-Glo(R) 2.0 Reagent (Promega Corporation) was added at 100 μL/well, and the amount of luminescence was measured using a plate reader EnSpire(R) Multimode Plate Reader (PerkinElmer Co., Ltd.).
(§3) An average value from 3 wells was calculated as to each drug condition from the obtained data, and cell survival rate normalized against control wells supplemented with the vehicle (DW) was calculated. A Fa (fractional inhibition) value was calculated by subtracting the cell survival rate from 1.

GB-1 cells = experiment: Cell proliferation inhibitory effect on human cancer cell lines: GB-1; assay type: cell-based; conditions: GB-1, Glioblastoma, DMEM + 10% FBS, 3000 cell/well
Description: Human derived breast cancer cell line HCC 1806 cells (American Type Culture Collection, ATCC) were daily passaged at a cell density not exceeding 80% in ATCC recommended Roswell Park Memorial Institute medium (RPMI-1640) containing 10% fetal bovine serum (FBS). In order to start the test of cell proliferation inhibitory activity, HCC 1806 cells were suspended in the above medium, after seeing at 180 μL in each well of a 96-well flat bottom plate so that the number of cells per well was 2,000, the cells were cultured at 37° C. for 1 day in an incubator containing 5% carbon dioxide gas.
On the next day, the Example compound was dissolved in DMSO, and 20 μL of a drug additive solution diluted serially with distilled water to 10 times of the final concentration was added to each well of the culture plate of the cells, and the cells were cultured at 37° C. for 72 hours in an incubator containing 5% carbon dioxide gas. After culturing for 72 hours, 20 μL of glutaraldehyde was added to each well and allowed to stand for 30 minutes, then the plate was washed 10 times with water and was dried. 100 μL of a stain solution (0.05% crystal violet in a 20% methanol solution) was added to each well and allowed to stand for 30 minutes, then the plate was washed 10 times with water and was dried. 100 μL of an extract solution (0.1 N NaH2PO4: 100% ethanol=1:1) was added to each well and mixed, and the mixture was measured at a wavelength of 540 nm using a plate reader (MTP-450 manufactured by Corona Electric Co., Ltd.).
The growth inhibition rate was calculated from the following formula, and the concentration (IC50 (μM)) of a compound inhibiting 50% was determined.
According to the method of Test Example 2, the cell proliferation inhibitory effect on various cancer cell lines as described in Table 24 was evaluated. […]

MV-4-11 = experiment: Antitumor effect in human-derived blood cancer cell line (MV-4-11) subcutaneous transplantation model (in vivo); parameters: species or system nude mouse (BALB/cA Jcl-nu/nu); conditions: oral, 100 mg/kg/day once per day for 14 days; RTV vs control group, Student-t test, p<0.05
Description: A human-derived blood cancer cell line MV-4-11 was transplanted subcutaneously into a nude mouse (BALB/cA Jcl-nu/nu, CLEA Japan, Inc.), and at the time when the tumor volume of the nude mouse on which the engrafted tumor reached 100 to 300 mm^3, four mice were assigned to each group by random stratification so that the average of the tumor volumes of each group was uniform (day 0), and the Example compound was orally administered daily at 100 mg/kg/day once per day for 14 days. Example Compound dosing solutions were prepared using 0.5% HPMC.
An electric balance for animals was used in body weight measurement. Rate of change in body weight on day n (BWCn) from body weight on day n (BWn) was calculated according to the following equation.
Rate of change in body weight BWCn (%)=(BWn−BW0)/BW0×100
Tumor volume (TV) was calculated according to the following equation by sandwiching and measuring the major axis and the minor axis with a digital caliper.
Tumor volume (mm^3)=Major axis (mm)×Minor axis (mm)×Minor axis (mm)/2
In order to compare the chronological transition of proliferation of tumor for the administration of each compound, relative tumor volume (RTV) setting the tumor volume at the time of grouping as 1 as the tumor proliferation rate was calculated according to the following formula, and the transition of the average value of RTV of each individual are shown in FIGS. 1 to 4.
RTV=(tumor volume at the day of tumor volume measurement)/(tumor volume at the time of the grouping)

[2] = tested on: CFPAC-1 (Human pancreatic cancer cell line); experiment: Effect of combination of sulfonamide compound and other antitumor agent (CellTiter-Glo, combination index): CFPAC-1;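 further: cells exposed to both agents together for 3 days, viability read by luminescence, normalized to vehicle-treated control wells, mean of triplicate wells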
Description: as §1, §2, §3

[3] = Example Compound 1 121 nM + Cytarabine 116 nM, molar ratio 1:0.9614
[4] = Example Compound 1 121 nM + Guadecitabine 11.9 nM, molar ratio 1:0.09807
[5] = Example Compound 1 182 nM + Cytarabine 175 nM, molar ratio 1:0.9614
[6] = Example Compound 1 182 nM + Decitabine 50.2 nM, molar ratio 1:0.2758
[7] = Example Compound 1 182 nM + Fludarabine nucleoside 4110 nM, molar ratio 1:22.56
[8] = Example Compound 1 182 nM + Guadecitabine 17.8 nM, molar ratio 1:0.09807
[9] = Example Compound 1 273 nM + Decitabine 75.3 nM, molar ratio 1:0.2758
[10] = Example Compound 1 273 nM + Fludarabine nucleoside 6160 nM, molar ratio 1:22.56
[11] = Example Compound 1 273 nM + Guadecitabine 26.8 nM, molar ratio 1:0.09807
[12] = Example Compound 1 409 nM + Cytarabine 393 nM, molar ratio 1:0.9614
[13] = Example Compound 1 409 nM + Decitabine 113 nM, molar ratio 1:0.2758
[14] = Example Compound 1 409 nM + Guadecitabine 40.1 nM, molar ratio 1:0.09807
[15] = Example Compound 1 613 nM + Decitabine 169 nM, molar ratio 1:0.2758
[16] = Example Compound 1 613 nM + Decitabine 589 nM, molar ratio 1:0.2758
[17] = Example Compound 1 613 nM + Guadecitabine 60.1 nM, molar ratio 1:0.09807
[18] = Example Compound 1 920 nM + Decitabine 254 nM, molar ratio 1:0.2758
[19] = Example Compound 1 920 nM + Guadecitabine […], molar ratio 1:0.09807
[20] = Example Compound 1 225 nM + Prexasertib 1.89 nM, molar ratio 1:0.008406
[21] = Example Compound 1 338 nM + AZD6738 925 nM, molar ratio 1:2.738
[22] = Example Compound 1 338 nM + Prexasertib 2.84 nM, molar ratio 1:0.008406
[23] = Example Compound 1 338 nM + SCH900776 253 nM, molar ratio 1:0.7487
[24] = Example Compound 1 507 nM + AZD6738 1390 nM, molar ratio 1:2.738
[25] = Example Compound 1 507 nM + Prexasertib 4.26 nM, molar ratio 1:0.008406
[26] = Example Compound 1 507 nM + SCH900776 380 nM, molar ratio 1:0.7487
[27] = Example Compound 1 760 nM + AZD6738 2080 nM, molar ratio 1:2.738
[28] = Example Compound 1 760 nM + Gemcitabine 5.28 nM, molar ratio 1:0.006950
[29] = Example Compound 1 760 nM + SCH900776 569 nM, molar ratio 1:0.7487

In the case of `Cc1ccc(F)c([C@@H](C)[C@H](NS(=O)(=O)c2ccc(Br)cc2C(N)=O)c2n[nH]c(=O)o2)c1C` [Example 1, 5-bromo-2-(N-((1 S,2R)-2-(6-fluoro-2,3-dimethylphenyl)-1-(5-oxo-4,5-dihydro-1,3,4-oxadiazol-2-yl)propyl)sulfamoyl)benzamide], the CI value [1, 3] is reported as 0.683, the Fa value [1, 3] is reported as 0.1611 and the CI value [1, 4] is reported as 0.706. For the same compound, the Fa value [1, 4] was 0.2186, the CI value [1, 5] was 0.603 and the Fa value [1, 5] was 0.4508. It also gave a CI value [1, 6] of 0.643, a Fa value [1, 6] of 0.3873 and a CI value [1, 7] of 0.783. The Fa value [1, 7] was 0.1868, the CI value [1, 8] was 0.741 and the Fa value [1, 8] was 0.3225. It also gave a CI value [1, 9] of 0.680, a Fa value [1, 9] of 0.5342 and a CI value [1, 10] of 0.592. The Fa value [1, 10] was 0.8795, the CI value [1, 11] was 0.705 and the Fa value [1, 11] was 0.5192. The CI value [1, 12] was 0.538, the Fa value [1, 12] was 0.9443 and the CI value [1, 13] was 0.667. The Fa value [1, 13] was 0.7570, the CI value [1, 14] was 0.658 and the Fa value [1, 14] was 0.7788. It also gave a CI value [1, 15] of 0.672, a Fa value [1, 15] of 0.9292 and a CI value [1, 16] of 0.419. It also gave a Fa value [1, 16] of 0.9960, a CI value [1, 17] of 0.671 and a Fa value [1, 17] of 0.9347. The CI value [1, 18] was 0.666, the Fa value [1, 18] was 0.9900 and the CI value [1, 19] was 0.639. The Fa value [1, 19] was 0.9921, the IC50 (GB-1 cells) was 1560 nM and the “antitumor effect (relative tumor volume, RTV)” value (MV-4-11) was “antitumor effect”. For the same compound, the CI value [2, 20] was 0.825, the Fa value [2, 20] was 0.2319 and the CI value [2, 21] was 0.484. For the same compound, the Fa value [2, 21] was 0.4791, the CI value [2, 22] was 0.580 and the Fa value [2, 22] was 0.6056. It also gave a CI value [2, 23] of 0.496, a Fa value [2, 23] of 0.4162 and a CI value [2, 24] of 0.356. It also gave a Fa value [2, 24] of 0.7266, a CI value [2, 25] of 0.633 and a Fa value [2, 25] of 0.7542. It also gave a CI value [2, 26] of 0.369, a Fa value [2, 26] of 0.6944 and a CI value [2, 27] of 0.427. For the same compound, the Fa value [2, 27] was 0.7884, the CI value [2, 28] was 0.790 and the Fa value [2, 28] was 0.6416. The CI value [2, 29] was 0.472 and the Fa value [2, 29] was 0.7479.
